Experiments:
[1] = test system: Tyrosine-protein kinase ABL1 (Homo sapiens), P00519 [F317I]; settings: Compound concentration 1000.0 nM
[2] = test system: Tyrosine-protein kinase ABL1 (Homo sapiens), P00519 [M351T]; settings: Compound concentration 1000.0 nM
[3] = target: Activin receptor type-1B (Homo sapiens) (UniProt P36896); settings: Compound concentration 1000.0 nM
[4] = target: Tyrosine-protein kinase Blk (Homo sapiens) (UniProt P51451); settings: Compound concentration 1000.0 nM
[5] = target: Cyclin-dependent kinase 5 (Homo sapiens) (UniProt Q00535); settings: Compound concentration 1000.0 nM
[6] = target: Cyclin-dependent kinase 9 (Homo sapiens) (UniProt P50750); settings: Compound concentration 1000.0 nM
[7] = target: Cyclin-dependent kinase-like 3 (Homo sapiens) (UniProt Q8IVW4); settings: Compound concentration 1000.0 nM
Sequence of Cyclin-dependent kinase-like 3 (Homo sapiens) (Q8IVW4 whole entry, looked up): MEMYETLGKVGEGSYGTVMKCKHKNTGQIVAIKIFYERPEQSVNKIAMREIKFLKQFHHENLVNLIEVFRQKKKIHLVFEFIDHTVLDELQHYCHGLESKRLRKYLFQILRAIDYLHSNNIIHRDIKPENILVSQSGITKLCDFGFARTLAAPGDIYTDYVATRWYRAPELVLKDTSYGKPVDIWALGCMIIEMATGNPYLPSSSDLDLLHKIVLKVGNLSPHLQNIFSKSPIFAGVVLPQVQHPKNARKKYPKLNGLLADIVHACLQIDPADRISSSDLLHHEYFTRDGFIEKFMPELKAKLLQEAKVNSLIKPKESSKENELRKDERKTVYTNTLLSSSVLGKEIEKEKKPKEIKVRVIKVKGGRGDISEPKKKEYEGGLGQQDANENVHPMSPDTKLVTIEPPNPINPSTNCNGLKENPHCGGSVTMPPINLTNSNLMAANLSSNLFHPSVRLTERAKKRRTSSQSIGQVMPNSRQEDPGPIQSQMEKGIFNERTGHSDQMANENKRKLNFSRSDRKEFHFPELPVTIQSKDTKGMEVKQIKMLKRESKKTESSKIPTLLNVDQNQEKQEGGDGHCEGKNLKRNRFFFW

[8] = target: Serine/threonine-protein kinase Chk2 (Homo sapiens) (UniProt O96017); settings: Compound concentration 1000.0 nM
Sequence of Serine/threonine-protein kinase Chk2 (Homo sapiens) (O96017 whole entry): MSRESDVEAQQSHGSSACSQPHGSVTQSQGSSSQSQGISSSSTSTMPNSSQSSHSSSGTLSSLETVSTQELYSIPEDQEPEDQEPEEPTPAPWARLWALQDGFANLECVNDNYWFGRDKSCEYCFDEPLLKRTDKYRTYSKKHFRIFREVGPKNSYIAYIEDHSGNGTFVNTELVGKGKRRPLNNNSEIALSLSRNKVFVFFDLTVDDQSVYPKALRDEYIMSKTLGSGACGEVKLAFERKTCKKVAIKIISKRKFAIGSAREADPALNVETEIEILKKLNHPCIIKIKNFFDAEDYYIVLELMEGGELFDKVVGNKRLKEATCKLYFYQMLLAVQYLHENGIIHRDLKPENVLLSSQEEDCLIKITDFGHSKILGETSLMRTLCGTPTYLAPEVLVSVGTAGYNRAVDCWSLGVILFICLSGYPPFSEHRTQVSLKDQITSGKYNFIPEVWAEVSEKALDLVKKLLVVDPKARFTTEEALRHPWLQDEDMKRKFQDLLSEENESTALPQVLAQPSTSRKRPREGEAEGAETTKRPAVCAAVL

[9] = target: Dual specificity protein kinase CLK3 (Homo sapiens) (UniProt P49761); settings: Compound concentration 1000.0 nM
Sequence of Dual specificity protein kinase CLK3 (Homo sapiens) (P49761 whole entry, looked up): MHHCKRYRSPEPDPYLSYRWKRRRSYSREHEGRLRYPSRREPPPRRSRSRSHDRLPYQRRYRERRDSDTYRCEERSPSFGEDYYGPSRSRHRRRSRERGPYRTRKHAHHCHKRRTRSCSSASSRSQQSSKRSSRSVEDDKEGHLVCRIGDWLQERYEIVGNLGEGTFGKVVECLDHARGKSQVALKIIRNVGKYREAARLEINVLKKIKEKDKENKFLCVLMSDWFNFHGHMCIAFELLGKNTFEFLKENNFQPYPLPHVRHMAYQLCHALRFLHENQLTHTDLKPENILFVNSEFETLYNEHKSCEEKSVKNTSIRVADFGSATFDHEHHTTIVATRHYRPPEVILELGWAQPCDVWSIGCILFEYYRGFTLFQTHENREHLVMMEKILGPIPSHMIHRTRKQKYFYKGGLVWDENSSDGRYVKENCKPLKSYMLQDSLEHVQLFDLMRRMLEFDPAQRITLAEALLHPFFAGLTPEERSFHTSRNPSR

[10] = target: Mitogen-activated protein kinase kinase kinase 12 (Homo sapiens) (UniProt Q12852); settings: Compound concentration 1000.0 nM
[11] = test system: Epidermal growth factor receptor (Homo sapiens), P00533 [UNDEFINED MUTATION]; settings: Compound concentration 1000.0 nM
[12] = target: Receptor tyrosine-protein kinase erbB-4 (Homo sapiens) (UniProt Q15303); settings: Compound concentration 1000.0 nM
[13] = target: G protein-coupled receptor kinase 4 (Homo sapiens) (UniProt P32298); settings: Compound concentration 1000.0 nM
[14] = target: Homeodomain-interacting protein kinase 2 (Homo sapiens) (UniProt Q9H2X6); settings: Compound concentration 1000.0 nM
[15] = target: Insulin-like growth factor 1 receptor (Homo sapiens) (UniProt P08069); settings: Compound concentration 1000.0 nM
[16] = target: Interleukin-1 receptor-associated kinase 3 (Homo sapiens) (UniProt Q9Y616); settings: Compound concentration 1000.0 nM
[17] = target: Tyrosine-protein kinase JAK1 (Homo sapiens) (UniProt P23458); settings: Compound concentration 1000.0 nM
[18] = target: Mitogen-activated protein kinase 10 (Homo sapiens) (UniProt P53779); settings: Compound concentration 1000.0 nM
[19] = target: Leucine-rich repeat serine/threonine-protein kinase 2 (Homo sapiens) (UniProt Q5S007); settings: Compound concentration 1000.0 nM
[20] = target: Serine/threonine-protein kinase MAK (Homo sapiens) (UniProt P20794); settings: Compound concentration 1000.0 nM
Sequence of Serine/threonine-protein kinase MAK (Homo sapiens) (P20794 whole entry): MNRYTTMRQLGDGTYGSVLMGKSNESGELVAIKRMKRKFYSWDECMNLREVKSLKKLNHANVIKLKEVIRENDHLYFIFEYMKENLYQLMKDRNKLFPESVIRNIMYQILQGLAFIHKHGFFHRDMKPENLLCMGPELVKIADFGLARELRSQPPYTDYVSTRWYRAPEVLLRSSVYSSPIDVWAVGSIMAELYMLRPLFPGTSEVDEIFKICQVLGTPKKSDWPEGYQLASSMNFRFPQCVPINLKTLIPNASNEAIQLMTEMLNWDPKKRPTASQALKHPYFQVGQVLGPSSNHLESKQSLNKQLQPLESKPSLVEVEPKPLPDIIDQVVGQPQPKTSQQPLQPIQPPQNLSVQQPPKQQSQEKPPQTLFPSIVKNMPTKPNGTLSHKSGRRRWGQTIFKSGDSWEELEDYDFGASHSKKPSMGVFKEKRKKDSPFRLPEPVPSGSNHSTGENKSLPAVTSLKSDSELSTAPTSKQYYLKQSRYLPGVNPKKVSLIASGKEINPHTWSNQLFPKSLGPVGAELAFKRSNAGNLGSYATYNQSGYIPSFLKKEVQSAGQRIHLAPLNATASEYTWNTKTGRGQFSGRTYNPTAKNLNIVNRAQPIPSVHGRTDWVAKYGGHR

[21] = target: Mitogen-activated protein kinase kinase kinase 3 (Homo sapiens) (UniProt Q99759); settings: Compound concentration 1000.0 nM
Sequence of Mitogen-activated protein kinase kinase kinase 3 (Homo sapiens) (Q99759 whole entry): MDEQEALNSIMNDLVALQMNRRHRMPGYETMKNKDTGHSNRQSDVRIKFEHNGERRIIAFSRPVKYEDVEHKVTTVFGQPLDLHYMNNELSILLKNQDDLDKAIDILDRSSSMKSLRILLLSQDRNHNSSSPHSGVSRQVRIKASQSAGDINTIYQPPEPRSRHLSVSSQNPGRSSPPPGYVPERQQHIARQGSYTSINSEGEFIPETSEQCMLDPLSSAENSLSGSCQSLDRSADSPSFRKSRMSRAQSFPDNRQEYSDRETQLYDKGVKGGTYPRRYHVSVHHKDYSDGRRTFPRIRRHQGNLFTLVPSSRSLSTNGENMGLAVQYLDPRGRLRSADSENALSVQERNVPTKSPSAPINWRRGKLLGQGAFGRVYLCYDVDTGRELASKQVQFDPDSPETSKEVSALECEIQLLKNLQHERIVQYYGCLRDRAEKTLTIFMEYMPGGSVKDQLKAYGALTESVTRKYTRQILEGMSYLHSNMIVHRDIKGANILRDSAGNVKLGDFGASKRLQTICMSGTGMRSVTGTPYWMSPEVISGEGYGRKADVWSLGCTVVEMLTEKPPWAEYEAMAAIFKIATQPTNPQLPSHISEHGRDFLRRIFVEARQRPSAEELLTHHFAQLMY

[22] = target: Dual specificity mitogen-activated protein kinase kinase 2 (Homo sapiens) (UniProt P36507); settings: Compound concentration 1000.0 nM
Sequence of Dual specificity mitogen-activated protein kinase kinase 2 (Homo sapiens) (P36507 whole entry): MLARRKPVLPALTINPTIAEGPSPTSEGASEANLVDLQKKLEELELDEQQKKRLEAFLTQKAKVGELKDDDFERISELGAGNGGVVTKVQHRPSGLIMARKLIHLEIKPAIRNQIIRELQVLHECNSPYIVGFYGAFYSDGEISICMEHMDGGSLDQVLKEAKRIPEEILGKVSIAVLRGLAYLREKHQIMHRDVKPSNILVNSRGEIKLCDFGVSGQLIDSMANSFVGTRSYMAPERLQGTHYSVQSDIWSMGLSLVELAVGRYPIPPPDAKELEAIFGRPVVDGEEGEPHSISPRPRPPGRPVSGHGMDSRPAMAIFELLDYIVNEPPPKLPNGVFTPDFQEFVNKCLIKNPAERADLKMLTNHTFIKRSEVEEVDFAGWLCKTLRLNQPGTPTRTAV

[23] = target: Dual specificity mitogen-activated protein kinase kinase 4 (Homo sapiens) (UniProt P45985); settings: Compound concentration 1000.0 nM
[24] = target: Dual specificity mitogen-activated protein kinase kinase 6 (Homo sapiens) (UniProt P52564); settings: Compound concentration 1000.0 nM
[25] = target: Myosin light chain kinase, smooth muscle (Homo sapiens) (UniProt Q15746); settings: Compound concentration 1000.0 nM
[26] = target: Serine/threonine-protein kinase Nek3 (Homo sapiens) (UniProt P51956); settings: Compound concentration 1000.0 nM
Sequence of Serine/threonine-protein kinase Nek3 (Homo sapiens) (P51956 whole entry): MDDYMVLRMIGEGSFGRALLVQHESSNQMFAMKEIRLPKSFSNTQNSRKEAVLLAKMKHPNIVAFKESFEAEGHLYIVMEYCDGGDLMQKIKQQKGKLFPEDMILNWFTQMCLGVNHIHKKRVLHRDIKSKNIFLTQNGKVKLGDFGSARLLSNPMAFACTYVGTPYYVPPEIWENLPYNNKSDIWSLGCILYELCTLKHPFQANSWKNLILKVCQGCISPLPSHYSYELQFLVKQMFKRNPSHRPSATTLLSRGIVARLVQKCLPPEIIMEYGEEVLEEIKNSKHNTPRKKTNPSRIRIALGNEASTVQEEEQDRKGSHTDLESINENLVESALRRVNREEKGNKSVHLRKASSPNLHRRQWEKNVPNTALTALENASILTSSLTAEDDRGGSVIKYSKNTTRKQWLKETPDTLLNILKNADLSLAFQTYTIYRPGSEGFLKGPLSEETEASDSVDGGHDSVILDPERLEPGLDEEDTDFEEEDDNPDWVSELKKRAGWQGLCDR

[27] = target: Cyclin-dependent kinase 16 (Homo sapiens) (UniProt Q00536); settings: Compound concentration 1000.0 nM
[28] = target: Cyclin-dependent kinase 2 homolog (Plasmodium falciparum (isolate 3D7)) (UniProt P61075); settings: Compound concentration 1000.0 nM
[29] = target: Cyclin-dependent kinase 15 (Homo sapiens) (UniProt Q96Q40); settings: Compound concentration 1000.0 nM
[30] = target: Cyclin-dependent kinase 14 (Homo sapiens) (UniProt O94921); settings: Compound concentration 1000.0 nM
[31] = target: Phosphatidylinositol 3-kinase C2 domain-containing subunit gamma (Homo sapiens) (UniProt O75747); settings: Compound concentration 1000.0 nM
[32] = target: Phosphatidylinositol 4-phosphate 5-kinase type-1 gamma (Homo sapiens) (UniProt O60331); settings: Compound concentration 1000.0 nM
[33] = target: Protein kinase C delta type (Homo sapiens) (UniProt Q05655); settings: Compound concentration 1000.0 nM
[34] = target: Serine/threonine-protein kinase D2 (Homo sapiens) (UniProt Q9BZL6); settings: Compound concentration 1000.0 nM
[35] = test system: Proto-oncogene tyrosine-protein kinase receptor Ret (Homo sapiens), P07949 [M918T]; settings: Compound concentration 1000.0 nM
[36] = test system: Proto-oncogene tyrosine-protein kinase receptor Ret (Homo sapiens), P07949 [V804L]; settings: Compound concentration 1000.0 nM
[37] = target: Receptor-interacting serine/threonine-protein kinase 1 (Homo sapiens) (UniProt Q13546); settings: Compound concentration 1000.0 nM
[38] = target: Ribosomal protein S6 kinase alpha-1 (Homo sapiens) (UniProt Q15418); settings: Compound concentration 1000.0 nM
[39] = target: Ribosomal protein S6 kinase alpha-2 (Homo sapiens) (UniProt Q15349); settings: Compound concentration 1000.0 nM
[40] = target: Serine/threonine-protein kinase 16 (Homo sapiens) (UniProt O75716); settings: Compound concentration 1000.0 nM
[41] = target: Serine/threonine-protein kinase TAO3 (Homo sapiens) (UniProt Q9H2K8); settings: Compound concentration 1000.0 nM
[42] = target: High affinity nerve growth factor receptor (Homo sapiens) (UniProt P04629); settings: Compound concentration 1000.0 nM
Sequence of High affinity nerve growth factor receptor (Homo sapiens) (P04629 33-796 limits assumed): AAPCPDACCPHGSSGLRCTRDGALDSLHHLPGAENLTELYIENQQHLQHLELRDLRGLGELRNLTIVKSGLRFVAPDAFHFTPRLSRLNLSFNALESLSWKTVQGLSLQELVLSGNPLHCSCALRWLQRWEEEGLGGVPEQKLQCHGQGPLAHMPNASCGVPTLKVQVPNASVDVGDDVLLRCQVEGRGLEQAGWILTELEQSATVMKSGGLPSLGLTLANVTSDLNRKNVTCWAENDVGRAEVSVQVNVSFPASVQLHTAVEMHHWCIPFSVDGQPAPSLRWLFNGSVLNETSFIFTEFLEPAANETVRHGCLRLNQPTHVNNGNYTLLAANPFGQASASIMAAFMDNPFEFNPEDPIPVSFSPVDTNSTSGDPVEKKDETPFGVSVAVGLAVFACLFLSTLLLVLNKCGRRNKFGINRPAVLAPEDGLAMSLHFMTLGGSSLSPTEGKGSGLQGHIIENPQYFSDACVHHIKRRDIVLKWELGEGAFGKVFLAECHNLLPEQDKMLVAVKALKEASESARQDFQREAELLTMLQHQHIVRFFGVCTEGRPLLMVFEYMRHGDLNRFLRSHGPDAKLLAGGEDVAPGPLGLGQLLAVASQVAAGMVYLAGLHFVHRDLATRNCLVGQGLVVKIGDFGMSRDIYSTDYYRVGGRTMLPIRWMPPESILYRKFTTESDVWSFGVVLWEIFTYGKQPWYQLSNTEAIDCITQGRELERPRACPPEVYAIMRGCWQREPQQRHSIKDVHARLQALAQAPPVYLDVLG

[43] = target: Serine/threonine-protein kinase ULK3 (Homo sapiens) (UniProt Q6PHR2); settings: Compound concentration 1000.0 nM
Sequence of Serine/threonine-protein kinase ULK3 (Homo sapiens) (Q6PHR2 whole entry): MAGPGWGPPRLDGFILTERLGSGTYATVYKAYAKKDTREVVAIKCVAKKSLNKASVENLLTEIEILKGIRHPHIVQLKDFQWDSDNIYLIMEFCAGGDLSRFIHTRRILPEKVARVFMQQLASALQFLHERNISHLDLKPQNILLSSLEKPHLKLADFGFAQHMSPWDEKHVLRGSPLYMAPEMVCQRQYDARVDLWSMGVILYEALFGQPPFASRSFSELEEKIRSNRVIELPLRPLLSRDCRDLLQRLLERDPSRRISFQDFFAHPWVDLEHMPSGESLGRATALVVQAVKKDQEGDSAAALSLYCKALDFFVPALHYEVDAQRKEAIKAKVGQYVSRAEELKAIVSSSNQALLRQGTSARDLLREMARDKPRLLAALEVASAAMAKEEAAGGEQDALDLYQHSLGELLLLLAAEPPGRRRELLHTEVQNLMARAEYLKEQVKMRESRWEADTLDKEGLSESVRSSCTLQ

[44] = target: Serine/threonine-protein kinase WNK4 (Homo sapiens) (UniProt Q96J92); settings: Compound concentration 1000.0 nM
[45] = species: Rattus norvegicus; settings: Compound concentration 10.0 uM

CN([C@@H]1CCc2c(CC(=O)O)c3cc(S(C)(=O)=O)ccc3n2C1)S(=O)(=O)c1ccc(F)cc1
residual activity [1]: 75%
residual activity [2]: 86%
residual activity [3]: 99%
residual activity [4]: 99%
residual activity [5]: 86%
residual activity [6]: 100%
residual activity [7]: 100%
residual activity [8]: 100%
residual activity [9]: 100%
residual activity [10]: 100%
residual activity [11]: 82%
residual activity [12]: 100%
residual activity [13]: 100%
residual activity [14]: 100%
residual activity [15]: 98%
residual activity [16]: 100%
residual activity [17]: 100%
residual activity [18]: 100%
residual activity [19]: 100%
residual activity [20]: 65%
residual activity [21]: 85%
residual activity [22]: 95%
residual activity [23]: 75%
residual activity [24]: 100%
residual activity [25]: 94%
residual activity [26]: 59%
residual activity [27]: 84%
residual activity [28]: 100%
residual activity [29]: 84%
residual activity [30]: 100%
residual activity [31]: 82%
residual activity [32]: 100%
residual activity [33]: 100%
residual activity [34]: 100%
residual activity [35]: 100%
residual activity [36]: 100%
residual activity [37]: 93%
residual activity [38]: 91%
residual activity [39]: 100%
residual activity [40]: 95%
residual activity [41]: 73%
residual activity [42]: 100%
residual activity [43]: 79%
residual activity [44]: 100%
inhibition [45]: 41.4%

CN([C@@H]1CCc2c(CC(=O)O)c3ccccc3n2C1)S(=O)(=O)c1ccc(F)cc1 [MK-7246]
residual activity [1]: 79%
residual activity [2]: 100%
residual activity [3]: 96%
residual activity [4]: 100%
residual activity [5]: 100%
residual activity [6]: 100%
residual activity [7]: 85%
residual activity [8]: 100%
residual activity [9]: 97%
residual activity [10]: 100%
residual activity [11]: 100%
residual activity [12]: 100%
residual activity [13]: 100%
residual activity [14]: 100%
residual activity [15]: 100%
residual activity [16]: 100%
residual activity [17]: 100%
residual activity [18]: 100%
residual activity [19]: 100%
residual activity [20]: 82%
residual activity [21]: 100%
residual activity [22]: 76%
residual activity [23]: 100%
residual activity [24]: 100%
residual activity [25]: 100%
residual activity [26]: 93%
residual activity [27]: 98%
residual activity [28]: 94%
residual activity [29]: 100%
residual activity [30]: 100%
residual activity [31]: 95%
residual activity [32]: 100%
residual activity [33]: 100%
residual activity [34]: 100%
residual activity [35]: 97%
residual activity [36]: 99%
residual activity [37]: 100%
residual activity [38]: 100%
residual activity [39]: 100%
residual activity [40]: 99%
residual activity [41]: 73%
residual activity [42]: 100%
residual activity [43]: 80%
residual activity [44]: 100%
inhibition [45]: 54%
